Data published in ChEMBL document CHEMBL5154787 (J Med Chem, 2022).

Columns and labels:
[1] = Metabolic stability in human liver microsomes assessed as parent compound remaining at 0.5 uM incubated for 10 mins in presence of NADPH by LC-MS/MS analysis; assay type: ADME, Microsome; settings: read-out: Stability
[2] = biological target: T1, AP2-associated protein kinase 1 (Homo sapiens, UniProt Q2M2I8); assay: Inhibition of full length human AAK1 expressed in HEK293F cells assessed as suppression of AP2 phosphorylation measured after 3 hrs by Western blot analysis based cellular assay; assay type: cell-based
T1 sequence (Q2M2I8 whole entry): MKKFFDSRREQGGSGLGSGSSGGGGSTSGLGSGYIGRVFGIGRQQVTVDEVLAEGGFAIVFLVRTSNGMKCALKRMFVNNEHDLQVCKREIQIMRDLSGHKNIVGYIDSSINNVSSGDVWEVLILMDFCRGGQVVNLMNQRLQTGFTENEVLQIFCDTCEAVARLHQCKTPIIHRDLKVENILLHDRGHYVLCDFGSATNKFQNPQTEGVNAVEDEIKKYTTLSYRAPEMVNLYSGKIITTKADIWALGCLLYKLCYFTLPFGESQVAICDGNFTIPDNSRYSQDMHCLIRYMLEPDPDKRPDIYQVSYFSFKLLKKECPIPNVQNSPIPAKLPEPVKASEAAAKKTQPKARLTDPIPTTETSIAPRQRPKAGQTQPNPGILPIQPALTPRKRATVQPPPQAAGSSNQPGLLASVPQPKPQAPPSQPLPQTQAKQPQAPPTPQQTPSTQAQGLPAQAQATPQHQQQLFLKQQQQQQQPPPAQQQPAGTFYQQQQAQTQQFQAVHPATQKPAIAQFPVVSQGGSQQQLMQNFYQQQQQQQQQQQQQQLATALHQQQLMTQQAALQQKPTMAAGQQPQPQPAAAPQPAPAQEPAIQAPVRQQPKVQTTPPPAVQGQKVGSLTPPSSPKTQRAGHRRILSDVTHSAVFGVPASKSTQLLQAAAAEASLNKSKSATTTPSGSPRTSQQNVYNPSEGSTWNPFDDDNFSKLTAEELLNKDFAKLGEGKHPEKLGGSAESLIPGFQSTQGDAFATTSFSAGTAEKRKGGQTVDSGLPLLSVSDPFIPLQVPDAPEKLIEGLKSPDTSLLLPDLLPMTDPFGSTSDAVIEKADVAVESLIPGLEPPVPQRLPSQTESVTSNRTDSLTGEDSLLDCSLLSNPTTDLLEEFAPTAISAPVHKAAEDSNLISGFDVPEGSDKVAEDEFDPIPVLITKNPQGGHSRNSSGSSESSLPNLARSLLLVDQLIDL

Cytochrome P450 3A4 = Cytochrome P450 3A4 (Homo sapiens, UniProt P08684); assay: Inhibition of CYP3A4 (unknown origin) incubated for 10 mins in presence of NADPH by LC-MS/MS analysis; assay type: ADME
Sequence of Cytochrome P450 3A4 (P08684 whole entry): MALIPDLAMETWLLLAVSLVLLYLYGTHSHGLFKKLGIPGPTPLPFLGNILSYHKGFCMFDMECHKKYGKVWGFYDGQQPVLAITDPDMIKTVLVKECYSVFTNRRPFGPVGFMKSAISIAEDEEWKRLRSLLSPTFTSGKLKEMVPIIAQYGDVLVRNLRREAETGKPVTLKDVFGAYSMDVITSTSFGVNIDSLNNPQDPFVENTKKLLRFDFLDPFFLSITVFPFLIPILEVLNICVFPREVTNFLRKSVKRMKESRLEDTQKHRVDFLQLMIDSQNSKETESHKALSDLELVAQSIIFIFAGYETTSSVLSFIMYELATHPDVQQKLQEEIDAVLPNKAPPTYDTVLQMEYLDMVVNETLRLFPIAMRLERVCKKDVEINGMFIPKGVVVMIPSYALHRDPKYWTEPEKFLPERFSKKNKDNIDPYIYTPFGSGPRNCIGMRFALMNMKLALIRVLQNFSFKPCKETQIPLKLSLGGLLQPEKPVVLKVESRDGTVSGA

[3] = Metabolic stability in mouse liver microsomes assessed as parent compound remaining at 0.5 uM incubated for 10 mins in presence of NADPH by LC-MS/MS analysis; assay type: ADME, Microsome; settings: liver microsomes, read-out: Stability
[4] = Efflux ratio of permeability in human Caco-2 cells; assay type: ADME, cell-based
[5] = Metabolic stability in rat liver microsomes assessed as parent compound remaining at 0.5 uM incubated for 10 mins in presence of NADPH by LC-MS/MS analysis; assay type: ADME, Microsome; settings: read-out: Stability
[6] = biological target: AP2-associated protein kinase 1 (Mus musculus, UniProt Q3UHJ0); assay: Displacement of 3H-LP-927443 from AAK1 in C57BL6 mouse brain homogenate assessed as inhibition constant incubated for 1 hr by liquid scintillation counter analysis; assay type: tissue-based
Sequence of AP2-associated protein kinase 1 (Mus musculus, UniProt Q3UHJ0) (Q3UHJ0 whole entry): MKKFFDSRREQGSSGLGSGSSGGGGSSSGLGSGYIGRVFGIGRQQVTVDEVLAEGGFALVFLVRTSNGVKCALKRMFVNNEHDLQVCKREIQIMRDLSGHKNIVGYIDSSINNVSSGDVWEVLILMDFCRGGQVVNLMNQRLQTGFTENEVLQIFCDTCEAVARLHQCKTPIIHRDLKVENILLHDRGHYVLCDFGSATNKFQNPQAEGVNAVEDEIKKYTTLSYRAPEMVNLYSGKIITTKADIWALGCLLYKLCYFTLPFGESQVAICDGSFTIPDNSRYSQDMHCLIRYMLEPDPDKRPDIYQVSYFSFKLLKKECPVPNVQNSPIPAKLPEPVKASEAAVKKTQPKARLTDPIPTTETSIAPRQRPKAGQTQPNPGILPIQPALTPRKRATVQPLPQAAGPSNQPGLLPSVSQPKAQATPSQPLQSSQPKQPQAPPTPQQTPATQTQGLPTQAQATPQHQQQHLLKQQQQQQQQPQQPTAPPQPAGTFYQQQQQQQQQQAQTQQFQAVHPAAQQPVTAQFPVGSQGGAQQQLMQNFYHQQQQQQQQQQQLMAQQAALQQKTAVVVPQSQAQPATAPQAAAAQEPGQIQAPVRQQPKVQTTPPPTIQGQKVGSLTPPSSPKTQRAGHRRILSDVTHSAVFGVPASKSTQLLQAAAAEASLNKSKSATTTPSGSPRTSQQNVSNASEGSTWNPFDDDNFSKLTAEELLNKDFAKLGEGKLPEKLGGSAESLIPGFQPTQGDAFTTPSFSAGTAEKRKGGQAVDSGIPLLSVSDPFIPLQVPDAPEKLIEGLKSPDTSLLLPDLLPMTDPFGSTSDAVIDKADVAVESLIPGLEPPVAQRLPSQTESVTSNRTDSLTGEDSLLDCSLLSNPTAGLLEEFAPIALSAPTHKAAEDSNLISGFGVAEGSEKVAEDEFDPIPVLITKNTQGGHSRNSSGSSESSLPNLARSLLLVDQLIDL

[7] = biological target: T1, AP2-associated protein kinase 1; assay: Inhibition of bacterially expressed GST-Xa-tagged human AAK1 using 5-FAM-labelled Aha-KEEQSQITSQVTGQIGWR-NH2 peptide as substrate incubated for 3 hrs in presence of ATP by electrophoretic analysis
[8] = Ratio of drug concentration in brain to plasma in Sprague-Dawley rat at 3 mg/kg, po measured at 2 hrs post dose; assay type: ADME, organism-based
[9] = biological target: T2, Cyclin-G-associated kinase (Homo sapiens, UniProt O14976); assay: Inhibition of GAK (unknown origin)
T2 sequence (O14976 whole entry): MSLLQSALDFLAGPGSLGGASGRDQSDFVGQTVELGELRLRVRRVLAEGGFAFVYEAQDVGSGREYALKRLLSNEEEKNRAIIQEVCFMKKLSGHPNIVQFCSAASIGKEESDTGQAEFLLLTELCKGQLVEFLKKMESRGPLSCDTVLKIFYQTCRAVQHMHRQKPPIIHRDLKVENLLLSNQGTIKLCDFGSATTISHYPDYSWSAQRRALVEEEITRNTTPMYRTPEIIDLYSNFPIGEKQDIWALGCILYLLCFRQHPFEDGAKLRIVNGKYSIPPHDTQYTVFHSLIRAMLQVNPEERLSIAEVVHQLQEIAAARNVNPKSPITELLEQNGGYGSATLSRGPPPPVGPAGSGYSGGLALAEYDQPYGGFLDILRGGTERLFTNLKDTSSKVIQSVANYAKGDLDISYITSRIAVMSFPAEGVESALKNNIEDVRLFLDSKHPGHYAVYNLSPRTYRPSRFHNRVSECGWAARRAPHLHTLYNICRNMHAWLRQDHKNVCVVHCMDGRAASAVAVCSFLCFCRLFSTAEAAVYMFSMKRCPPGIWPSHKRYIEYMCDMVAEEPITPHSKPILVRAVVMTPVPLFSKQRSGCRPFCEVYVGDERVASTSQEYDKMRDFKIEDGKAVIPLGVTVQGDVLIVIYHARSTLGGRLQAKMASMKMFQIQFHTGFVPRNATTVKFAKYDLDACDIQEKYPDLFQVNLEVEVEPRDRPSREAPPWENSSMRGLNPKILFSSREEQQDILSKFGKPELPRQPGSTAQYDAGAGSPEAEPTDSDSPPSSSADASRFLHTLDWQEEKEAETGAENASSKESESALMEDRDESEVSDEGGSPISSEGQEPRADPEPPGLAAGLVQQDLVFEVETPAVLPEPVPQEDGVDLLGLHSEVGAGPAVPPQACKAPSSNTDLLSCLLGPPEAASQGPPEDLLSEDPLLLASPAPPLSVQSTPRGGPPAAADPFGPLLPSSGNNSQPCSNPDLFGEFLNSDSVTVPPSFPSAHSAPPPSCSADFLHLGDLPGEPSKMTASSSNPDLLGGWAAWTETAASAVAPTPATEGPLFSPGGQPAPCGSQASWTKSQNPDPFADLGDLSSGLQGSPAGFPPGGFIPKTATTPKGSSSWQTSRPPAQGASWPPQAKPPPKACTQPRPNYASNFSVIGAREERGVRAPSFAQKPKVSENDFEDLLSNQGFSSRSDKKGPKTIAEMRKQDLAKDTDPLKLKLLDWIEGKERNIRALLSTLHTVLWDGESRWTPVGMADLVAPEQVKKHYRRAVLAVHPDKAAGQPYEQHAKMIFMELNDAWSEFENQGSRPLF

[10] = Cardiotoxicity in aortic ring (unknown origin) assessed as relaxation of phenylephrine induced aortic ring contraction at 10 uM incubated for 1 hr; assay type: toxicity, tissue-based, Aorta; parameters: scale not given: the % may be the effect or the level left; settings: human
[11] = biological target: Myosin light chain kinase 2, skeletal/cardiac muscle (Homo sapiens, UniProt Q9H1R3); assay: Inhibition of MYLK2 (unknown origin)
[12] = biological target: Citron Rho-interacting kinase (Homo sapiens, UniProt O14578); assay: Inhibition of CRIK (unknown origin)
Sequence of Citron Rho-interacting kinase (O14578 whole entry): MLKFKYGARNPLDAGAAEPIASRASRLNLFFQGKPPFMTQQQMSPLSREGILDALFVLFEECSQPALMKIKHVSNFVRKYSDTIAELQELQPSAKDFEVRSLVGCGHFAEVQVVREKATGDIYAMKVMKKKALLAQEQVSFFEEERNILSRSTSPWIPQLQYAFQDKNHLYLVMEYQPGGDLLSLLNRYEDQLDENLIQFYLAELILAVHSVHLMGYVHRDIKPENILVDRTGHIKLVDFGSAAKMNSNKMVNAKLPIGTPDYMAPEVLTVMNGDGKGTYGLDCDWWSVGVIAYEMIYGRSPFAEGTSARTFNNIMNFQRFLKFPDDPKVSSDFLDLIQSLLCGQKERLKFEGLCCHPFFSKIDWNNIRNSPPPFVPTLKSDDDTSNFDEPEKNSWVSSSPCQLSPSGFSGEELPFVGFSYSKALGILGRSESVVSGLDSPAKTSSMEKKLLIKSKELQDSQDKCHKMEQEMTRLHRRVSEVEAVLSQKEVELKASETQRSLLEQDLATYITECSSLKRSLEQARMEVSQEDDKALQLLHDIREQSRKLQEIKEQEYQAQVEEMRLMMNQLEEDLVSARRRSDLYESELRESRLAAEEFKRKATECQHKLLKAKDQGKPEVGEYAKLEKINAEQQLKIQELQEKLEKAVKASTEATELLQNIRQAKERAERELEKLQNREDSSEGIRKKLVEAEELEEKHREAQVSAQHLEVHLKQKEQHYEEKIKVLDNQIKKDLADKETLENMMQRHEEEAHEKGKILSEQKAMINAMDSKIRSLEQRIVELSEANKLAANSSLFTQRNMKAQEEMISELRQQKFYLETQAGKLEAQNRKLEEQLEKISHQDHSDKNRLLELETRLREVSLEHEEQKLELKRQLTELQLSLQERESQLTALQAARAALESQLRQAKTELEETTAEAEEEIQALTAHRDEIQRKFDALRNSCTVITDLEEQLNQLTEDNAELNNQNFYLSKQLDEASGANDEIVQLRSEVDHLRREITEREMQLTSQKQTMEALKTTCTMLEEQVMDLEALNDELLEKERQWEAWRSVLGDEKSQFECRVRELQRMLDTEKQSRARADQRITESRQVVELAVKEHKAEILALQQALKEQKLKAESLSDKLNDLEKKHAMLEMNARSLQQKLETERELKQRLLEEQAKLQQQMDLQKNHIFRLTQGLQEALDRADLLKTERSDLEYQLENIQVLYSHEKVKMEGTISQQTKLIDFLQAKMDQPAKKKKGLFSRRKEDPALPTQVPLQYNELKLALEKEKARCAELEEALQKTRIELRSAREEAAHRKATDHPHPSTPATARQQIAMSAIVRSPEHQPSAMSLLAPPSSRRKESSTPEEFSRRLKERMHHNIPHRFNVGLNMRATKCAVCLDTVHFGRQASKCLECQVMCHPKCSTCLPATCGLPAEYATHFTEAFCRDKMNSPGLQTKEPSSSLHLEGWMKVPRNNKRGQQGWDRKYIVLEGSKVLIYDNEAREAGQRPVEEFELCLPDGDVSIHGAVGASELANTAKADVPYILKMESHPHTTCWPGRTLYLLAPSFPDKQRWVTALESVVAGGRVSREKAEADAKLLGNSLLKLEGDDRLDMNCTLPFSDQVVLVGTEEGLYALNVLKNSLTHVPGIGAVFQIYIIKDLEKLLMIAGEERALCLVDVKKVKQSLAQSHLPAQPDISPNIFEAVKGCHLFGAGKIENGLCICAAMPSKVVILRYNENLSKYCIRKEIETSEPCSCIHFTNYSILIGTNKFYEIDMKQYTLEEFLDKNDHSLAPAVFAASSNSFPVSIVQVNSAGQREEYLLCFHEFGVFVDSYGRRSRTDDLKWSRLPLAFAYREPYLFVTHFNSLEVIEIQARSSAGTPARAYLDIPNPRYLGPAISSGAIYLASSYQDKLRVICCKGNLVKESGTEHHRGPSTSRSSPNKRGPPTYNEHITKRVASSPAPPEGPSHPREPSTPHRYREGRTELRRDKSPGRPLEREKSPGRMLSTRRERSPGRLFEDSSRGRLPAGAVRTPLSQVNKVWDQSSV

[13] = biological target: TRAF2 and NCK-interacting protein kinase (Homo sapiens, UniProt Q9UKE5); assay: Inhibition of TNIK (unknown origin)
[14] = biological target: Rho-associated protein kinase 2 (Homo sapiens, UniProt O75116); assay: Inhibition of ROCK2 (unknown origin)
[15] = biological target: MAP kinase-interacting serine/threonine-protein kinase 1 (Homo sapiens, UniProt Q9BUB5); assay: Inhibition of MNK1 (unknown origin)
Sequence of MAP kinase-interacting serine/threonine-protein kinase 1 (Q9BUB5 whole entry): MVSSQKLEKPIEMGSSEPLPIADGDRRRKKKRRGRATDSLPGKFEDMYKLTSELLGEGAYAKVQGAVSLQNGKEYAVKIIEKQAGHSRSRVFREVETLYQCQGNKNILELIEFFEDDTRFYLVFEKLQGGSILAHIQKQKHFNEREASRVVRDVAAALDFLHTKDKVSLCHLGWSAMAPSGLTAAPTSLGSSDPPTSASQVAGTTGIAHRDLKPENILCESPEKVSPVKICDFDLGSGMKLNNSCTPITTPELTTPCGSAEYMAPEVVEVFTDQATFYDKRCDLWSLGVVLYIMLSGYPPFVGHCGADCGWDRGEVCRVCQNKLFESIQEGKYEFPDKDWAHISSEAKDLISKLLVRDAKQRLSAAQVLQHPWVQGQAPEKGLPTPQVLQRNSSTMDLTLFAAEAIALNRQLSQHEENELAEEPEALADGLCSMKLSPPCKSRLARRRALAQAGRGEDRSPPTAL

[16] = biological target: BMP-2-inducible protein kinase (Homo sapiens, UniProt Q9NSY1); assay: Inhibition of BIKE (unknown origin)
[17] = Plasma concentration in STZ-induced diabetic peripheral neuropathic mechanical allodynia in overnight fasted Sprague-Dawley rat at 1 mg/kg, po measured at 5.75 hrs post dose; assay type: ADME, organism-based
[18] = Ratio of drug concentration in spinal cord to plasma in STZ-induced diabetic peripheral neuropathic mechanical allodynia in overnight fasted Sprague-Dawley rat at 1 mg/kg, po measured at 5.75 hrs post dose; assay type: ADME, organism-based
[19] = Drug concentration in STZ-induced diabetic peripheral neuropathic mechanical allodynia in overnight fasted Sprague-Dawley rat spinal cord at 1 mg/kg, po measured at 5.75 hrs post dose; assay type: ADME, organism-based; settings: read-out: Ct

Compound	remaining at 10 min, 0.5 µM [1]	IC50 [2]	IC50 (Cytochrome P450 3A4)	remaining at 10 min, 0.5 µM [3]	efflux ratio [4]	remaining at 10 min, 0.5 µM [5]	Ki [6]	IC50 [7]	Kp at 2 h [8]	IC50 [9]	IC50 [11]	IC50 [12]	IC50 [13]	IC50 [14]	IC50 [15]	IC50 [16]	concentration at 5.75 h [17]	Kp at 5.75 h [18]	concentration at 5.75 h [19]	Activity [10]
COC(=O)Nc1cc(-c2ccc(OC[C@@](C)(N)CC(C)C)c(C3CC3)c2)ccn1	100%	1 nM	16300 nM	33%	–	80%	0.05 nM	0.4 nM	–	–	–	–	–	–	–	–	–	–	–	–
CC(=O)Nc1cc(-c2ccc(OC[C@@](C)(N)CC(C)C)c(C#N)c2)ccn1	64%	0.6 nM	> 20000 nM	71%	2.5	78%	0.09 nM	0.6 nM	–	–	–	–	–	–	–	–	–	–	–	–
CC(=O)Nc1cc(-c2ccc(OC[C@@](C)(N)CC(C)C)c(F)c2)ccn1	91%	3.7 nM	> 20000 nM	70%	–	92%	0.24 nM	0.8 nM	–	–	–	–	–	–	–	–	–	–	–	–
Cc1cc(-c2ccnc(C(F)F)c2)ncc1OC[C@@](C)(N)CC(C)C	83%	12 nM	> 20000 nM	80%	–	76%	0.3 nM	1.4 nM	–	–	–	–	–	–	–	–	–	–	–	–
COC(=O)Nc1cc(-c2cc(C)c(OC[C@@](C)(N)CC(C)C)cn2)ccn1	100%	12 nM	13000 nM	99%	–	100%	1.4 nM	1.7 nM	–	1800 nM	600 nM	60 nM	690 nM	780 nM	1300 nM	–	–	–	–	38%
COC(=O)Nc1cc(-c2ccc(OC[C@@](C)(N)CC(C)C)c(C(F)F)c2)ccn1	88%	0.6 nM	> 20000 nM	69%	–	86%	0.04 nM	0.5 nM	–	–	–	–	–	–	–	–	–	–	–	–
Cc1cc(-c2cc(Cl)c(OC[C@@](C)(N)CC(C)C)cn2)ccn1	86%	1.9 nM	> 20000 nM	71%	–	73%	0.7 nM	–	–	–	–	1300 nM	–	–	1900 nM	1500 nM	–	–	–	50%
COC(=O)Nc1cc(-c2cnc(OC[C@@](C)(N)CC(C)C)c(OC)c2)ccn1 (racemic)	86%	–	> 20000 nM	59%	–	79%	2.5 nM	3.8 nM	–	–	–	–	–	–	–	–	–	–	–	91%
COC(=O)Nc1cc(-c2ccc(OC[C@@](C)(N)CC(C)C)c(C)c2)ccn1 (racemic)	98%	0.8 nM	> 20000 nM	75%	–	96%	0.08 nM	0.8 nM	–	–	–	–	–	–	–	–	–	–	–	–
CC(C)C[C@](C)(N)COc1ccc(-c2ccnc(C(F)F)c2)nc1C(F)F [PILAVAPADIN]	–	–	–	–	–	–	–	–	–	–	–	–	–	–	–	–	84 nM	2.9	245 nM	–

More lines, main results first:

remaining at 10 min, 0.5 µM [1]	IC50 [2]	IC50 (Cytochrome P450 3A4)	remaining at 10 min, 0.5 µM [3]	efflux ratio [4]	remaining at 10 min, 0.5 µM [5]	Ki [6]	IC50 [7]	Kp at 2 h [8]	IC50 [9]	IC50 [11]	IC50 [12]	IC50 [13]	IC50 [14]	IC50 [15]	IC50 [16]	concentration at 5.75 h [17]	Kp at 5.75 h [18]	concentration at 5.75 h [19]	Compound	Activity [10]
96%	3.8 nM	6900 nM	58%	4.2	92%	0.96 nM	–	–	–	–	–	–	–	–	–	–	–	–	COc1cc(-c2ccnc(NC(C)=O)c2)ccc1OC[C@@H](N)CC(C)C	–
87%	0.5 nM	2600 nM	84%	6.3	83%	0.04 nM	–	0.45	–	–	–	–	–	–	–	–	–	–	CC(=O)Nc1cc(-c2ccc(OC[C@@H](N)CC(C)C)c(C#N)c2)ccn1	–
57%	0.8 nM	13000 nM	69%	–	88%	0.07 nM	0.5 nM	–	–	–	–	–	–	–	–	–	–	–	COC(=O)Nc1cc(-c2ccc(OC[C@@](C)(N)CC(C)C)c(C#N)c2)ccn1	–
80%	1.5 nM	6900 nM	68%	–	74%	0.05 nM	0.3 nM	–	–	–	–	–	–	–	–	–	–	–	COC(=O)Nc1cc(-c2ccc(OC[C@@](C)(N)CC(C)C)c(C(F)(F)F)c2)ccn1	–
81%	0.2 nM	7800 nM	43%	–	83%	0.04 nM	0.6 nM	–	–	–	–	–	–	–	–	–	–	–	COC(=O)Nc1cc(-c2ccc(OC[C@@](C)(N)CC(C)C)c(OC(F)(F)F)c2)ccn1	–
81%	1.4 nM	740 nM	66%	–	85%	0.09 nM	0.5 nM	–	–	–	–	–	–	–	–	–	–	–	COC(=O)Nc1cc(-c2ccc(OC[C@@](C)(N)CC(C)C)c(Cl)c2)ccn1 (racemic)	–
